Test results reported in ChEMBL document CHEMBL6153104, “Discovery of the first potent ROR1 degrader for the treatment of non-small cell lung cancer” (Eur J Med Chem, 2025).

Columns and labels:
Assay type in all cases: cell-based
[1] = molecular target: T1, Protein cereblon/Inactive tyrosine-protein kinase transmembrane receptor ROR1 (Homo sapiens) (UniProt Q96SW2+Q01973); assay: PROTAC activity at CRBN/ROR1 in human NCI-H23 cells assessed as induction of ROR1 degradation at 1 uM incubated for 24 hrs by Western blot analysis relative to control
T1 sequence (Q01973 whole entry, looked up): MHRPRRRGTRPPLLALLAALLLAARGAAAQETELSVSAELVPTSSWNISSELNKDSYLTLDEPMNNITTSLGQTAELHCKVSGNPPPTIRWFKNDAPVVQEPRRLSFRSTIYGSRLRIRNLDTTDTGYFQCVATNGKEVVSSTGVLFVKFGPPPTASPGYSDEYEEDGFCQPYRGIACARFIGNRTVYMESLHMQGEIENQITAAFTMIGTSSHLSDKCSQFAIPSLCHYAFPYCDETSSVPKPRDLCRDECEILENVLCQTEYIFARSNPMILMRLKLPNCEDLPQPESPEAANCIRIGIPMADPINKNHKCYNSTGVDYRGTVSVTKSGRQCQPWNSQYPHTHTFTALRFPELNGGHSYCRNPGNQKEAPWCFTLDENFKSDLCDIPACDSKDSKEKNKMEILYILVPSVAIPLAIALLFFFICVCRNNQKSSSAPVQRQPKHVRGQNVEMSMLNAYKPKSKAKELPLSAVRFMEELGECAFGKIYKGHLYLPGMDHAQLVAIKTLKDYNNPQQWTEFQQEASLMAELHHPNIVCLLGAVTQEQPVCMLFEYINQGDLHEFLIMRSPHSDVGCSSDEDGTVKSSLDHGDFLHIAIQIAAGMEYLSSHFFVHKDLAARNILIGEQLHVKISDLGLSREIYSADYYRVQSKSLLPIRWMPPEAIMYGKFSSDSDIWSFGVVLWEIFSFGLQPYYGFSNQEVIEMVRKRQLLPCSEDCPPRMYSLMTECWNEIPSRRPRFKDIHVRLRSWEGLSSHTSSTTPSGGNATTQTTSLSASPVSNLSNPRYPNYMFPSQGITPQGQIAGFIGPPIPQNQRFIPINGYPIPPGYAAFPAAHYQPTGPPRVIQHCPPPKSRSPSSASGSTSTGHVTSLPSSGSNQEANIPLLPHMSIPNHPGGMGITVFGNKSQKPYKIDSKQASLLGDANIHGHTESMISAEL
T1 sequence (Q96SW2 whole entry, looked up): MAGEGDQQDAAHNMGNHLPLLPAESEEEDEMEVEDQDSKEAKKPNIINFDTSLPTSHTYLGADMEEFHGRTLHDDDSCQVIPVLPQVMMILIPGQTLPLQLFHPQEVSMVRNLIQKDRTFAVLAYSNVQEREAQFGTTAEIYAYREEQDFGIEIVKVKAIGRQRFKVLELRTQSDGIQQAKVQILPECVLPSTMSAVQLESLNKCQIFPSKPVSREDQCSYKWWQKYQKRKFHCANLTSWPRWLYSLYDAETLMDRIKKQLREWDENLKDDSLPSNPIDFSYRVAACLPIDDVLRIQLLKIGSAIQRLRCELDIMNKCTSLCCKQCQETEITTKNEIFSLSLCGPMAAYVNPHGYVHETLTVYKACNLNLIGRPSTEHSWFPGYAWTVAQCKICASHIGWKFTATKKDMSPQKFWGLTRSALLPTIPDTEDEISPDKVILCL

[2] = molecular target: T1, Protein cereblon/Inactive tyrosine-protein kinase transmembrane receptor ROR1 (Homo sapiens); assay: PROTAC activity at CRBN/ROR1 in human NCI-H23 cells assessed as induction of ROR1 degradation at 0.1 uM incubated for 24 hrs by Western blot analysis relative to control
[3] = molecular target: T2, von Hippel-Lindau disease tumor suppressor/Inactive tyrosine-protein kinase transmembrane receptor ROR1 (Homo sapiens, UniProt P40337+Q01973); assay: PROTAC activity at VHL/ROR1 in human NCI-H23 cells assessed as induction of ROR1 degradation at 1 uM incubated for 24 hrs by Western blot analysis relative to control
T2 sequence (P40337 whole entry): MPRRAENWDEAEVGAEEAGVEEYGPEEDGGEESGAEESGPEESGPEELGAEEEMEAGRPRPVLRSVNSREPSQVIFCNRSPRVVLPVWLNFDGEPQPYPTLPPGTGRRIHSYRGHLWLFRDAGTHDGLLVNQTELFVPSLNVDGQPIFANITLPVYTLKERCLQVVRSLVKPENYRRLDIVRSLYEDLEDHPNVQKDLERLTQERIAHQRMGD
T2 sequence (Q01973 30-937 partner limits assumed): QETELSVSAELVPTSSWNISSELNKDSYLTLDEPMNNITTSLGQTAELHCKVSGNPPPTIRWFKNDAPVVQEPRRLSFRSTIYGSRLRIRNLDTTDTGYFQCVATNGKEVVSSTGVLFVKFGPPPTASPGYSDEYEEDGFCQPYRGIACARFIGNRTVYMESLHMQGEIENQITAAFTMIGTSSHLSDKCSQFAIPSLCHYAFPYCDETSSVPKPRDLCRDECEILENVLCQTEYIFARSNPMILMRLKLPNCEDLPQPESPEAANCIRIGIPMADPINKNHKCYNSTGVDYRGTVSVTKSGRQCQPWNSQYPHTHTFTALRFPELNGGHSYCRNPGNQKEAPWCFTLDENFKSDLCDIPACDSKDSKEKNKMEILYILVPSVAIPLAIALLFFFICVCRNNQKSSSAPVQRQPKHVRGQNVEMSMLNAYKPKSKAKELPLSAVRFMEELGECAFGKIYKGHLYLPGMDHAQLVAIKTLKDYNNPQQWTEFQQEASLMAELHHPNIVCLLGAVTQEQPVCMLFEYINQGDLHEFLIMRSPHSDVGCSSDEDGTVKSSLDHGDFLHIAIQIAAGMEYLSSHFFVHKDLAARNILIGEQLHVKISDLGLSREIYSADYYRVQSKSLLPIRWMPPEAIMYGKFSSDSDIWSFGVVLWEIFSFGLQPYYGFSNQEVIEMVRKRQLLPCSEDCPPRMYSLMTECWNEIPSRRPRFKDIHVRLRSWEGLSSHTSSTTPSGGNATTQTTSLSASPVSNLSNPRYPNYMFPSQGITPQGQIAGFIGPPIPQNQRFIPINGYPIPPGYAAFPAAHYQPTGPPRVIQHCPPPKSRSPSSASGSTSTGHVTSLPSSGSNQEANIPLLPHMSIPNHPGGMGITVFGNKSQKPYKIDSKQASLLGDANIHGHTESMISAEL

[4] = molecular target: T2, von Hippel-Lindau disease tumor suppressor/Inactive tyrosine-protein kinase transmembrane receptor ROR1; assay: PROTAC activity at VHL/ROR1 in human NCI-H23 cells assessed as induction of ROR1 degradation at 0.1 uM incubated for 24 hrs by Western blot analysis relative to control

CCN1CCC(Nc2c(Br)cnc3[nH]c(-c4ccc(N5CCN(C(=O)CCCCCCCCCNc6cccc7c6C(=O)N(C6CCC(=O)NC6=O)C7=O)CC5)cc4)nc23)CC1 (stereo not drawn)
Activity [1]: 57.5%
Activity [2]: 6.7%

CCN1CCC(Nc2c(Br)cnc3[nH]c(-c4ccc(N5CCN(CCNc6cccc7c6C(=O)N(C6CCC(=O)NC6=O)C7=O)CC5)cc4)nc23)CC1 (stereo not drawn)
Activity [1]: 99.3%
Activity [2]: 69.7%

CCN1CCC(Nc2c(Br)cnc3[nH]c(-c4ccc(N5CCN(C(=O)CCCCCCCCCOc6cccc7c6C(=O)N(C6CCC(=O)NC6=O)C7=O)CC5)cc4)nc23)CC1 (stereo not drawn)
Activity [1]: 99.6%
Activity [2]: 38.7%

CCN1CCC(Nc2c(Br)cnc3[nH]c(-c4ccc(N5CCN(C(=O)CCCOc6ccc7c(c6)C(=O)N(C6CCC(=O)NC6=O)C7=O)CC5)cc4)nc23)CC1 (stereo not drawn)
Activity [1]: 87.3%
Activity [2]: 0%

CCN1CCC(Nc2c(Br)cnc3[nH]c(-c4ccc(N5CCN(C(=O)CCCCCNc6cccc7c6C(=O)N(C6CCC(=O)NC6=O)C7=O)CC5)cc4)nc23)CC1 (stereo not drawn)
Activity [1]: 75.8%
Activity [2]: 6.2%

CCN1CCC(Nc2c(Br)cnc3[nH]c(-c4ccc(N5CCN(C(=O)CCCCCCCCCCC(=O)N[C@H](C(=O)N6C[C@H](O)C[C@H]6C(=O)NCc6ccc(-c7scnc7C)cc6)C(C)(C)C)CC5)cc4)nc23)CC1
Activity [3]: 99.7%
Activity [4]: 85.1%

CCN1CCC(Nc2c(Br)cnc3[nH]c(-c4ccc(N5CCN(C(=O)CCCCCNc6ccc7c(c6)C(=O)N(C6CCC(=O)NC6=O)C7=O)CC5)cc4)nc23)CC1 (stereo not drawn)
Activity [1]: 87.2%
Activity [2]: 35.5%

CCN1CCC(Nc2c(Br)cnc3[nH]c(-c4ccc(N5CCN(C(=O)CNc6cccc7c6C(=O)N(C6CCC(=O)NC6=O)C7=O)CC5)cc4)nc23)CC1 (stereo not drawn)
Activity [1]: 83.3%
Activity [2]: 0%

CCN1CCC(Nc2c(Br)cnc3[nH]c(-c4ccc(N5CCN(CCOCCOCCNc6cccc7c6C(=O)N(C6CCC(=O)NC6=O)C7=O)CC5)cc4)nc23)CC1 (stereo not drawn)
Activity [1]: 89.6%
Activity [2]: 11.1%

CCN1CCC(Nc2c(Br)cnc3[nH]c(-c4ccc(N5CCN(CCNc6ccc7c(c6)C(=O)N(C6CCC(=O)NC6=O)C7=O)CC5)cc4)nc23)CC1 (stereo not drawn)
Activity [1]: 92.7%
Activity [2]: 3.2%

CCN1CCC(Nc2c(Br)cnc3[nH]c(-c4ccc(N5CCN(C(=O)CCCCCCCCCOc6ccc7c(c6)C(=O)N(C6CCC(=O)NC6=O)C7=O)CC5)cc4)nc23)CC1 (stereo not drawn)
Activity [1]: 60.5%
Activity [2]: 0%

CCN1CCC(Nc2c(Br)cnc3[nH]c(-c4ccc(N5CCN(C(=O)CCCCCCC(=O)N[C@H](C(=O)N6C[C@H](O)C[C@H]6C(=O)NCc6ccc(-c7scnc7C)cc6)C(C)(C)C)CC5)cc4)nc23)CC1
Activity [3]: 84.1%
Activity [4]: 36.5%

CCN1CCC(Nc2c(Br)cnc3[nH]c(-c4ccc(N5CCN(CCCC(=O)N[C@H](C(=O)N6C[C@H](O)C[C@H]6C(=O)NCc6ccc(-c7scnc7C)cc6)C(C)(C)C)CC5)cc4)nc23)CC1
Activity [3]: 23.6%
Activity [4]: 22.6%

CCN1CCC(Nc2c(Br)cnc3[nH]c(-c4ccc(N5CCN(CCOCCOCCOCCNc6ccc7c(c6)C(=O)N(C6CCC(=O)NC6=O)C7=O)CC5)cc4)nc23)CC1 (stereo not drawn)
Activity [1]: 73.5%
Activity [2]: 0%

CCN1CCC(Nc2c(Br)cnc3[nH]c(-c4ccc(N5CCN(C(=O)CCCCCCCOc6cccc7c6C(=O)N(C6CCC(=O)NC6=O)C7=O)CC5)cc4)nc23)CC1 (stereo not drawn)
Activity [1]: 0%
Activity [2]: 9.5%

CCN1CCC(Nc2c(Br)cnc3[nH]c(-c4ccc(N5CCN(C(=O)CCCCCOc6ccc7c(c6)C(=O)N(C6CCC(=O)NC6=O)C7=O)CC5)cc4)nc23)CC1 (stereo not drawn)
Activity [1]: 0%
Activity [2]: 0%

CCN1CCC(Nc2c(Br)cnc3[nH]c(-c4ccc(N5CCN(C(=O)CCCCC(=O)N[C@H](C(=O)N6C[C@H](O)C[C@H]6C(=O)NCc6ccc(-c7scnc7C)cc6)C(C)(C)C)CC5)cc4)nc23)CC1
Activity [3]: 35.3%
Activity [4]: 12.9%

CCN1CCC(Nc2c(Br)cnc3[nH]c(-c4ccc(N5CCN(CCCCCCNc6ccc7c(c6)C(=O)N(C6CCC(=O)NC6=O)C7=O)CC5)cc4)nc23)CC1 (stereo not drawn)
Activity [1]: 89.9%
Activity [2]: 37.6%

CCN1CCC(Nc2c(Br)cnc3[nH]c(-c4ccc(N5CCN(CCCCCCCCCC(=O)N[C@H](C(=O)N6C[C@H](O)C[C@H]6C(=O)NCc6ccc(-c7scnc7C)cc6)C(C)(C)C)CC5)cc4)nc23)CC1
Activity [3]: 88.4%
Activity [4]: 28.1%

CCN1CCC(Nc2c(Br)cnc3[nH]c(-c4ccc(N5CCN(C(=O)CCCNc6ccc7c(c6)C(=O)N(C6CCC(=O)NC6=O)C7=O)CC5)cc4)nc23)CC1 (stereo not drawn)
Activity [1]: 46.8%
Activity [2]: 11%

CCN1CCC(Nc2c(Br)cnc3[nH]c(-c4ccc(N5CCN(CC(=O)N[C@H](C(=O)N6C[C@H](O)C[C@H]6C(=O)NCc6ccc(-c7scnc7C)cc6)C(C)(C)C)CC5)cc4)nc23)CC1
Activity [3]: 46.2%
Activity [4]: 10.2%

CCN1CCC(Nc2c(Br)cnc3[nH]c(-c4ccc(N5CCN(C(=O)CCCCCCCOc6ccc7c(c6)C(=O)N(C6CCC(=O)NC6=O)C7=O)CC5)cc4)nc23)CC1 (stereo not drawn)
Activity [1]: 0%
Activity [2]: 0%

CCN1CCC(Nc2c(Br)cnc3[nH]c(-c4ccc(N5CCN(C(=O)CCC(=O)N[C@H](C(=O)N6C[C@H](O)C[C@H]6C(=O)NCc6ccc(-c7scnc7C)cc6)C(C)(C)C)CC5)cc4)nc23)CC1
Activity [3]: 85.8%
Activity [4]: 32.5%

CCN1CCC(Nc2c(Br)cnc3[nH]c(-c4ccc(N5CCN(CCOCCOCCNc6ccc7c(c6)C(=O)N(C6CCC(=O)NC6=O)C7=O)CC5)cc4)nc23)CC1 (stereo not drawn)
Activity [1]: 88.7%
Activity [2]: 0%

CCN1CCC(Nc2c(Br)cnc3[nH]c(-c4ccc(N5CCN(CCCNc6ccc7c(c6)C(=O)N(C6CCC(=O)NC6=O)C7=O)CC5)cc4)nc23)CC1 (stereo not drawn)
Activity [1]: 97.4%
Activity [2]: 23.2%

CCN1CCC(Nc2c(Br)cnc3[nH]c(-c4ccc(N5CCN(C(=O)CCCCCOc6cccc7c6C(=O)N(C6CCC(=O)NC6=O)C7=O)CC5)cc4)nc23)CC1 (stereo not drawn)
Activity [1]: 0%
Activity [2]: 0%

CCN1CCC(Nc2c(Br)cnc3[nH]c(-c4ccc(N5CCN(C(=O)COc6cccc7c6C(=O)N(C6CCC(=O)NC6=O)C7=O)CC5)cc4)nc23)CC1 (stereo not drawn)
Activity [1]: 88.9%
Activity [2]: 38%

CCN1CCC(Nc2c(Br)cnc3[nH]c(-c4ccc(N5CCN(C(=O)CCCCCCCCCNc6ccc7c(c6)C(=O)N(C6CCC(=O)NC6=O)C7=O)CC5)cc4)nc23)CC1 (stereo not drawn)
Activity [1]: 0%
Activity [2]: 1.6%

CCN1CCC(Nc2c(Br)cnc3[nH]c(-c4ccc(N5CCN(C(=O)CNc6ccc7c(c6)C(=O)N(C6CCC(=O)NC6=O)C7=O)CC5)cc4)nc23)CC1 (stereo not drawn)
Activity [1]: 71%
Activity [2]: 0.8%

CCN1CCC(Nc2c(Br)cnc3[nH]c(-c4ccc(N5CCN(CCCCCC(=O)N[C@H](C(=O)N6C[C@H](O)C[C@H]6C(=O)NCc6ccc(-c7scnc7C)cc6)C(C)(C)C)CC5)cc4)nc23)CC1
Activity [3]: 78.5%
Activity [4]: 29.3%

CCN1CCC(Nc2c(Br)cnc3[nH]c(-c4ccc(N5CCN(CCCCCCNc6cccc7c6C(=O)N(C6CCC(=O)NC6=O)C7=O)CC5)cc4)nc23)CC1 (stereo not drawn)
Activity [1]: 96.5%
Activity [2]: 6.1%

CCN1CCC(Nc2c(Br)cnc3[nH]c(-c4ccc(N5CCN(C(=O)COc6ccc7c(c6)C(=O)N(C6CCC(=O)NC6=O)C7=O)CC5)cc4)nc23)CC1 (stereo not drawn)
Activity [1]: 0%
Activity [2]: 0%

CCN1CCC(Nc2c(Br)cnc3[nH]c(-c4ccc(N5CCN(C(=O)CCCCCCCNc6cccc7c6C(=O)N(C6CCC(=O)NC6=O)C7=O)CC5)cc4)nc23)CC1 (stereo not drawn)
Activity [1]: 75.3%
Activity [2]: 1.2%

CCN1CCC(Nc2c(Br)cnc3[nH]c(-c4ccc(N5CCN(C(=O)CCCCCCCNc6ccc7c(c6)C(=O)N(C6CCC(=O)NC6=O)C7=O)CC5)cc4)nc23)CC1 (stereo not drawn)
Activity [1]: 73.3%
Activity [2]: 30.5%

CCN1CCC(Nc2c(Br)cnc3[nH]c(-c4ccc(N5CCN(CCCCCCCC(=O)N[C@H](C(=O)N6C[C@H](O)C[C@H]6C(=O)NCc6ccc(-c7scnc7C)cc6)C(C)(C)C)CC5)cc4)nc23)CC1
Activity [3]: 99.6%
Activity [4]: 52.5%

CCN1CCC(Nc2c(Br)cnc3[nH]c(-c4ccc(N5CCN(C(=O)CCCNc6cccc7c6C(=O)N(C6CCC(=O)NC6=O)C7=O)CC5)cc4)nc23)CC1 (stereo not drawn)
Activity [1]: 76%
Activity [2]: 6.6%

CCN1CCC(Nc2c(Br)cnc3[nH]c(-c4ccc(N5CCN(C(=O)CCCOc6cccc7c6C(=O)N(C6CCC(=O)NC6=O)C7=O)CC5)cc4)nc23)CC1 (stereo not drawn)
Activity [1]: 50.6%
Activity [2]: 0%

CCN1CCC(Nc2c(Br)cnc3[nH]c(-c4ccc(N5CCN(CCCNc6cccc7c6C(=O)N(C6CCC(=O)NC6=O)C7=O)CC5)cc4)nc23)CC1 (stereo not drawn)
Activity [1]: 99.7%
Activity [2]: 76.1%

CCN1CCC(Nc2c(Br)cnc3[nH]c(-c4ccc(N5CCN(CCOCCOCCOCCNc6cccc7c6C(=O)N(C6CCC(=O)NC6=O)C7=O)CC5)cc4)nc23)CC1 (stereo not drawn)
Activity [1]: 93.8%
Activity [2]: 30.4%
